ChEMBL document CHEMBL1759949, “In vitro cytotoxicity of melleolide antibiotics: structural and mechanistic aspects” (Bioorg Med Chem Lett, 2011)
Active and inactive are the calls of the source. No cut-off for these calls is given here. Starred links: 1 amine or outer side, 2 acyl side, 3 side chain; linkers in the order of their positions; H or OH if unused. Positions of bridges follow the written chain, without caps; N, C: chain ends. Non-standard residues stand in square brackets, D forms with d. Residues, ends and D or L forms follow the SMILES beside them. Chains are numbered I, II in the order given. Actinocin(1to9) = Cc1c2oc3c(C)ccc(C(=O)[*:2])c3nc-2c(C(=O)[*:1])c(N)c1=O; NMeV = CN[C@H](C(=O)O)C(C)C; Sar = CNCC(=O)O

Key:
[1] = system: MCF7; test: Cytotoxicity against human MCF7 cells at <=100 uM; assay type: functional, cell-based
[2] = system: Jurkat; test: Cytotoxicity against human Jurkat cells at <=100 uM; assay type: functional, cell-based
[3] = system: HeLa; test: Cytotoxicity against human HeLa cells at <=100 uM; assay type: functional, cell-based
[4] = system: K562; test: Cytotoxicity against human K562 cells at <=100 uM; assay type: functional, cell-based
[5] = system: MCF7; test: Cytotoxicity against human MCF7 cells; assay type: functional, cell-based
[6] = system: HeLa; test: Cytotoxicity against human HeLa cells; assay type: functional, cell-based
[7] = system: K562; test: Cytotoxicity against human K562 cells; assay type: functional, cell-based
[8] = system: K562; test: Inhibition of transcription in human K562 cells at 4 uM after 120 mins; assay type: functional; design: scale not given: the % may be the effect or the level left
[9] = system: K562; test: Inhibition of DNA synthesis in human K562 cells assessed as [14C]thymidine incorporation at 4 uM after 120 mins; assay type: functional; design: scale not given: the % may be the effect or the level left
[10] = system: Jurkat; test: Cytotoxicity against human Jurkat cells; assay type: functional, cell-based
[11] = system: K562; test: Inhibition of cellular respiration in human K562 cells at 1.25 to 5 uM; assay type: functional, cell-based
[12] = system: K562; test: Inhibition of RNA synthesis in human K562 cells assessed as inhibition of [14C]uridine incorporation upto 5 uM after 120 mins; assay type: functional, cell-based
[13] = system: K562; test: Inhibition of DNA synthesis in human K562 cells assessed as [14C]thymidine incorporation at 1.25 uM after 60 mins; assay type: functional; design: scale not given: the % may be the effect or the level left
[14] = system: K562; test: Inhibition of DNA synthesis in human K562 cells assessed as [14C]thymidine incorporation at 1.25 uM after 120 mins; assay type: functional; design: scale not given: the % may be the effect or the level left
[15] = system: K562; test: Inhibition of protein synthesis in human K562 cells assessed as inhibition of [14C]L-leucine incorporation at 1.25 uM after 60 mins; assay type: functional, cell-based
[16] = system: K562; test: Inhibition of protein synthesis in human K562 cells assessed as [14C]L-leucine incorporation at 1.25 uM after 120 mins; assay type: functional; design: scale not given: the % may be the effect or the level left
[17] = system: K562; test: Inhibition of protein synthesis in human K562 cells assessed as [14C]L-leucine incorporation at 5 uM after 60 mins; assay type: functional; design: scale not given: the % may be the effect or the level left
[18] = system: K562; test: Inhibition of protein synthesis in human K562 cells assessed as [14C]L-leucine incorporation at 5 uM after 120 mins; assay type: functional; design: scale not given: the % may be the effect or the level left
[19] = system: K562; test: Inhibition of DNA synthesis in human K562 cells assessed as [14C]thymidine incorporation at 5 uM after 60 mins; assay type: functional; design: scale not given: the % may be the effect or the level left
[20] = system: K562; test: Inhibition of DNA synthesis in human K562 cells assessed as [14C]thymidine incorporation at 5 uM after 120 mins; assay type: functional; design: scale not given: the % may be the effect or the level left
[21] = system: K562; test: Inhibition of protein synthesis in human K562 cells assessed as [14C]L-leucine incorporation at 3.5 uM after 120 mins; assay type: functional; design: scale not given: the % may be the effect or the level left
[22] = system: K562; test: Inhibition of transcription in human K562 cells at 3.5 uM after 120 mins; assay type: functional; design: scale not given: the % may be the effect or the level left
[23] = system: K562; test: Inhibition of DNA synthesis in human K562 cells assessed as [14C]thymidine incorporation at 0.47 uM after 120 mins; assay type: functional; design: scale not given: the % may be the effect or the level left
[24] = system: K562; test: Inhibition of protein synthesis in human K562 cells assessed as [14C]L-leucine incorporation at 0.47 uM after 120 mins; assay type: functional; design: scale not given: the % may be the effect or the level left
[25] = system: K562; test: Inhibition of transcription in human K562 cells at 0.47 uM after 120 mins; assay type: functional; design: scale not given: the % may be the effect or the level left

Compound: Cc1cc(O)cc(O)c1C(=O)O[C@@H]1C[C@]2(C)[C@H]3CC(C)(C)C[C@@]3(O)C=C(CO)[C@]12O
- Activity [1]: Not toxic
- Activity [2]: Not toxic
- Activity [3]: Not toxic
- Activity [4]: Not toxic

Compound: COc1cc(O)c(C(=O)OCC2=C[C@]3(O)CC(C)(C)[C@H](O)[C@@H]3[C@@]3(C)C[C@@H](O)[C@@]23O)c(C)c1Cl
- Activity [1]: Not toxic
- Activity [2]: Not toxic
- Activity [3]: Not toxic
- Activity [4]: Not toxic

Compound: COc1cc(O)c(C(=O)O[C@@H]2C[C@]3(C)[C@H]4[C@@H](O)C(C)(C)C[C@@]4(O)C=C(CO)[C@]23O)c(C)c1Cl
- Activity [1]: Not toxic
- Activity [2]: Not toxic
- Activity [3]: Not toxic
- Activity [4]: Not toxic

Compound: COc1cc(C)c(C(=O)O[C@@H]2C[C@]3(C)[C@H]4CC(C)(C)C[C@H]4C=C(C=O)[C@]23O)c(O)c1 [ARMILLARIN]
- IC50 [5]: 11.6 µM
- IC50 [6]: 16.7 µM
- IC50 [7]: 9.9 µM

Compound: Cc1c2oc3c(C)ccc(C(=O)N[C@@H]4C(=O)N[C@H](C(C)C)C(=O)N5CCC[C@H]5C(=O)N(C)CC(=O)N(C)[C@@H](C(C)C)C(=O)O[C@@H]4C)c3nc-2c(C(=O)N[C@@H]2C(=O)N[C@H](C(C)C)C(=O)N3CCC[C@H]3C(=O)N(C)CC(=O)N(C)[C@@H](C(C)C)C(=O)O[C@@H]2C)c(N)c1=O [DACTINOMYCIN] (I: T[dV]P[Sar][NMeV] / II: T[dV]P[Sar][NMeV]; ester I:1-I:C, II:1-II:C; linker I:N-II:N via Actinocin(1to9))
- Activity [8]: 2%
- Activity [9]: 58%

Compound: Cc1cc(O)cc(O)c1C(=O)O[C@@H]1C[C@@]2(C)C1=C(C=O)[C@@H](O)[C@@H]1CC(C)(C)C[C@@H]12 [DEHYDROARMILLYLORSELLINATE]
- IC50 [5]: 8 µM
- IC50 [10]: 16.9 µM
- IC50 [6]: 15.2 µM
- IC50 [7]: 5 µM
- inhibition [11]: inactive
- inhibition [12]: inactive
- Activity [13]: 90%
- Activity [14]: 71%
- inhibition [15]: inactive
- Activity [16]: 96%
- Activity [17]: 76%
- Activity [18]: 35%
- Activity [19]: 70%
- Activity [20]: 35%

Compound: C[C@@H]1C[C@@H]([C@H](O)CC2CC(=O)NC(=O)C2)C(=O)[C@@H](C)C1 [CYCLOHEXIMIDE]
- Activity [21]: 26%
- Activity [22]: 99%

Compound: COc1cc(O)c(C(=O)O[C@@H]2C[C@]3(C)[C@H]4CC(C)(C)C[C@H]4[C@H](O)[C@@H](CO)[C@]23O)c(C)c1Cl
- IC50 [5]: 26.5 µM
- IC50 [10]: 13.3 µM
- IC50 [6]: 35.8 µM
- IC50 [7]: 25 µM

Compound: Cc1c(Cl)c(O)cc(O)c1C(=O)O[C@@H]1C[C@]2(C)[C@H]3CC(C)(C)C[C@@]3(O)C=C(CO)[C@]12O
- IC50 [5]: > 100 µM
- IC50 [10]: 46.6 µM
- IC50 [6]: > 100 µM
- IC50 [7]: > 100 µM

Compound: COc1cccc2c1C(=O)c1c(O)c3c(c(O)c1C2=O)C[C@@](O)(C(=O)CO)C[C@@H]3O[C@H]1C[C@H](N)[C@H](O)[C@H](C)O1 [DOXORUBICIN]
- Activity [23]: 46%
- Activity [24]: 89%
- Activity [25]: 79%

Compound: COc1cc(O)c(C(=O)O[C@@H]2C[C@]3(C)[C@H]4CC(C)(C)C[C@H]4C=C(C=O)[C@]23OC)c(C)c1Cl
- IC50 [5]: 6.7 µM
- IC50 [10]: 4.1 µM
- IC50 [6]: 18.8 µM
- IC50 [7]: 20.6 µM

Compound: COc1cc(O)c(C(=O)O[C@@H]2C[C@]3(C)[C@H]4CC(C)(CO)C[C@@]4(O)C=C(CO)[C@]23O)c(C)c1Cl (stereo not given in full)
- Activity [1]: Not toxic
- Activity [2]: Not toxic
- Activity [3]: Not toxic
- Activity [4]: Not toxic

Compound: COc1cc(O)c(C(=O)O[C@@H]2C[C@]3(C)[C@H]4CC(C)(C)C[C@H]4C=C(CO)[C@]23O)c(C)c1Cl
- IC50 [5]: 21.3 µM
- IC50 [10]: 10.4 µM
- IC50 [6]: 40 µM
- IC50 [7]: 38.9 µM

Compound: COc1cc(O)c(C(=O)O[C@@H]2C[C@]3(C)[C@H]4CC(C)(C)C[C@H]4C=C(C=O)[C@]23O)c(C)c1Cl [ARMILLARIDIN]
- IC50 [5]: 7.8 µM
- IC50 [10]: 3 µM
- IC50 [6]: 9.2 µM
- IC50 [7]: 8.9 µM
